Measured values reported in patent publication US11806363B1, “Green synthesis of silver nanoparticles using euphorbia dendroides aqueous extract” (King Faisal University, priority 2023, dated 2023).
Values after ≈ are worked out from the molar mass of the structure shown.

How the values were obtained:
[1] = system: HepG2 cells; assay: MTT cytotoxicity assay, HepG2 cells; assay type: cell-based; details: Homo sapiens, 48 h treatment, triplicate, mean ±SD, read-out: IC50 (50% inhibition of cancer cell growth)
[2] = system: HCT-116 cells; assay: MTT cytotoxicity assay, HCT-116 cells; assay type: cell-based; details: Homo sapiens; HCT-116, MTT, 48 h treatment, triplicate, mean ±SD; read-out: IC50 (50% inhibition of cancer cell growth)

Which results are given for `COc1cccc2c1C(=O)c1c(O)c3c(c(O)c1C2=O)C[C@@](O)(C(=O)CO)C[C@@H]3O[C@H]1C[C@H](N)[C@H](O)[C@H](C)O1` [DOX, doxorubicin]?
IC50 [1]: 0.38 ± 0.07 µg/mL (≈ 0.699 µM); IC50 [2]: 0.86 ± 0.16 µg/mL (≈ 1.58 µM)
